According to publication PMC9166766 (Experimental & Molecular Medicine, 2022):

What was measured:
NFATC2 dephosphorylation = assay: NFAT mobility shifting assay in Jurkat T cells; type: cell-based; conditions: HA-mCherry-tagged peptides, PMA and ionomycin 2 h, n = 7
Procedure: Jurkat T cells expressing GST-tagged peptides were treated with PMA and ionomycin for activation. […] For dephosphorylation of NFATC2, Jurkat T cells were treated with PMA and ionomycin for 2 h. c Hyper- and hypophosphorylated NFATC2 of b was measured using ImageJ, and the hypo/hyper ratio was calculated (n = 7). d Snapshot images of the activated Jurkat T cells expressing the indicated peptides and tNFATC2 were obtained using confocal microscopy. The expression and localization of peptides and tNFATC2 are shown as mCherry (red) and EGFP (green), respectively. Nuclei were stained with Hoechst (blue). Scale bar, 50 μm e Nuclear-localized tNFATC2 was measured by calculating the colocalization ratio between Hoechst (M1) and EGFP (M2). […] Statistical differences were determined using a two-tailed Student’s t-test (a, c) or one-way ANOVA (e). ***p < 0.001, NC negative control.

[1] = system: Jurkat T cells (T-cell activation gene mRNA); assay: Real-time quantitative PCR of activated Jurkat T cells; type: cell-based; conditions: PMA and ionomycin, Supplementary Fig. 5a, b
Text: We collected Jurkat T cells with QIAzol Lysis Reagent (Qiagen) to extract total RNA. We reverse transcribed cDNAs from isolated RNA using AMV Reverse Transcriptase and random hexamers. We performed real-time quantitative PCR for each cDNA using TB Green® Premix Ex Taq™ (TaKaRa, Kusatsu, Japan) on a CFX Connect Real-time PCR Detection System (Bio-Rad, Hercules, CA, USA) and normalized the expression to that of 18 S rRNA or GAPDH.

[2] = system: Jurkat T cells (PMA and ionomycin-induced gene expression); assay: mRNA sequencing of activated Jurkat T cells; type: cell-based, human
Procedure: We then extracted RNA from these cells. Construction of the cDNA library and next-generation sequencing was performed at LAS (Gimpo, Korea). We sequenced all samples on an Illumina NextSeq 500 system with 75 paired-end reads. For the RNA sequencing analysis, reads for each sample were aligned to the human genome (GRCh37/hg19 genome assembly) using STAR 2.4.0.1[25] with default settings. We used HOMER tools to quantify and normalize the defined genes in RefSeq transcripts. FPKM normalized genes were hierarchically clustered using Cluster3.0[26]. We visualized refined data with Java Treeview (http://jtreeview.sourceforge.net). We conducted gene ontology analysis of each cluster using the DAVID web tool (https://david.ncifcrf.gov). Finally, we visualized the expression levels of target genes using the Integrative Genomics Viewer (http://software.broadinstitute.org/software/igv). The raw data were submitted to the NCBI Gene Expression Omnibus under accession number GSE185561.
Fig. 3 The CABIN1 peptide inhibits T-cell activation. a Heatmap of altered genes affected by FK506 treatment or CABIN1 peptide expression upon T-cell activation. b Gene Ontology analysis of cluster III. c mRNA expression levels of genes included in cluster III. d qRT-PCR data of genes in c. The experiment was independently repeated at least three times, and the data are presented as the mean ± standard deviation. Statistical differences were determined using two-tailed Student’s t-test. *p < 0.05, **p < 0.01, ***p < 0.001, NC negative control.

In the case of `C=CC[C@@H]1/C=C(\C)C[C@H](C)C[C@H](OC)[C@H]2O[C@@](O)(C(=O)C(=O)N3CCCC[C@H]3C(=O)O[C@H](/C(C)=C/[C@@H]3CC[C@@H](O)[C@H](OC)C3)[C@H](C)[C@@H](O)CC1=O)[C@H](C)C[C@@H]2OC` [FK506, reference compound], the “NFATC2 dephosphorylation / band shift” value (NFATC2 dephosphorylation) is reported as “inhibited the NFATC2 band shift”, the “NINJ1 and ZP4 expression upon T-cell activation” value [1] is reported as “repressed” and the “CD27 and CD70 expression” value ([2]; Jurkat, PMA and ionomycin 8 h) is reported as “repressed”. For the same compound, the “RNA levels of T-cell activation markers (IL2, IL3, NFATC1, CCL4, CCL20, CXCL8)” value ([2]; Jurkat, PMA and ionomycin 8 h) was “reduced the RNA levels”, the TM4SF1 expression ([2]; P+I 8 h, NC 0, NC_P+I 3.268) was 0.439 FPKM and the CD200 expression ([2]; P+I 8 h, NC 0, NC_P+I 3.759) was 0 FPKM. The ZP4 expression ([2]; P+I 8 h, NC 0, NC_P+I 6.38) was 0.462 FPKM, the CCL3L1 expression ([2]; P+I 8 h, NC 0, NC_P+I 6.448) was 0 FPKM and the CCL3L3 expression ([2]; P+I 8 h, NC 0, NC_P+I 6.524) was 0 FPKM. For the same compound, the CCL1 expression ([2]; P+I 8 h, NC 0, NC_P+I 9.86) was 0 FPKM, the NR4A2 expression ([2]; P+I 8 h, NC 0, NC_P+I 10.173) was 0.04 FPKM and the CCL4L2 expression ([2]; P+I 8 h, NC 0, NC_P+I 12.758) was 0.087 FPKM. For the same compound, the CCL4L1 expression ([2]; P+I 8 h, NC 0, NC_P+I 13.27) was 0.087 FPKM, the CSF2 expression ([2]; P+I 8 h, NC 0, NC_P+I 23.497) was 0 FPKM and the XCL1 expression ([2]; P+I 8 h, NC 0, NC_P+I 49.113) was 0 FPKM. It also gave a CCL3 expression ([2]; P+I 8 h, NC 0, NC_P+I 52.239) of 0 FPKM, a CCL20 expression ([2]; P+I 8 h, NC 0, NC_P+I 59.393) of 0 FPKM and an IL3 expression ([2]; P+I 8 h, NC 0, NC_P+I 229.054) of 0.062 FPKM. The CCL4 expression ([2]; P+I 8 h, NC 0, NC_P+I 247.287) was 0 FPKM, the IL2 expression ([2]; P+I 8 h, NC 0, NC_P+I 397.807) was 0.287 FPKM and the C3 expression ([2]; P+I 8 h, NC 0.006, NC_P+I 3.907) was 0.489 FPKM. It also gave a TNS3 expression ([2]; P+I 8 h, NC 0.008, NC_P+I 13.196) of 0.678 FPKM, a PLS3 expression ([2]; P+I 8 h, NC 0.019, NC_P+I 4.717) of 0.052 FPKM and a CREB5 expression ([2]; P+I 8 h, NC 0.031, NC_P+I 4.533) of 0.577 FPKM. It also gave an IRF4 expression ([2]; P+I 8 h, NC 0.034, NC_P+I 8.439) of 0.423 FPKM, a CXCL8 expression ([2]; P+I 8 h, NC 0.037, NC_P+I 26.755) of 0.937 FPKM and an SLAMF1 expression ([2]; P+I 8 h, NC 0.042, NC_P+I 5.663) of 0.217 FPKM. The TNFSF14 expression ([2]; P+I 8 h, NC 0.045, NC_P+I 69.958) was 1.023 FPKM, the IL21R-AS1 expression ([2]; P+I 8 h, NC 0.048, NC_P+I 23.616) was 1.927 FPKM and the XCL2 expression ([2]; P+I 8 h, NC 0.056, NC_P+I 70.747) was 0 FPKM. The LIF expression ([2]; P+I 8 h, NC 0.063, NC_P+I 3.697) was 0.143 FPKM, the SHC4 expression ([2]; P+I 8 h, NC 0.069, NC_P+I 4.391) was 0.663 FPKM and the RGS16 expression ([2]; P+I 8 h, NC 0.077, NC_P+I 29.102) was 1.172 FPKM. The IL21R expression ([2]; P+I 8 h, NC 0.1, NC_P+I 34.712) was 2.244 FPKM, the CRTAM expression ([2]; P+I 8 h, NC 0.104, NC_P+I 100.175) was 3.325 FPKM and the ZNF704 expression ([2]; P+I 8 h, NC 0.107, NC_P+I 4.985) was 0.014 FPKM. It also gave an NTRK1 expression ([2]; P+I 8 h, NC 0.167, NC_P+I 7.941) of 0.836 FPKM, a PHEX expression ([2]; P+I 8 h, NC 0.188, NC_P+I 17.377) of 0.213 FPKM and an SORBS1 expression ([2]; P+I 8 h, NC 0.196, NC_P+I 5.08) of 0.4 FPKM. The TIAM2 expression ([2]; P+I 8 h, NC 0.255, NC_P+I 4.095) was 0.27 FPKM, the CRIM1 expression ([2]; P+I 8 h, NC 0.268, NC_P+I 3.029) was 0.305 FPKM and the SERPINB2 expression ([2]; P+I 8 h, NC 0.28, NC_P+I 85.882) was 2.905 FPKM. It also gave a CCND2 expression ([2]; P+I 8 h, NC 0.321, NC_P+I 6.436) of 0.558 FPKM, a CXCR3 expression ([2]; P+I 8 h, NC 0.604, NC_P+I 14.322) of 0.503 FPKM and an ISM1 expression ([2]; P+I 8 h, NC 0.798, NC_P+I 56.893) of 0.726 FPKM. The C10orf54 expression ([2]; P+I 8 h, NC 0.84, NC_P+I 7.506) was 0.382 FPKM, the CSF1 expression ([2]; P+I 8 h, NC 0.848, NC_P+I 13.43) was 1.706 FPKM and the SLC35E4 expression ([2]; P+I 8 h, NC 0.887, NC_P+I 9.069) was 0.952 FPKM. The ZNF827 expression ([2]; P+I 8 h, NC 0.975, NC_P+I 3.401) was 1.521 FPKM, the CD70 expression ([2]; P+I 8 h, NC 1.101, NC_P+I 61.146) was 3.005 FPKM and the PAM expression ([2]; P+I 8 h, NC 1.154, NC_P+I 5.577) was 1.483 FPKM. The FOXO1 expression ([2]; P+I 8 h, NC 1.167, NC_P+I 8.247) was 1.77 FPKM, the IRF8 expression ([2]; P+I 8 h, NC 1.168, NC_P+I 14.813) was 1.19 FPKM and the SCHIP1 expression ([2]; P+I 8 h, NC 1.25, NC_P+I 3.933) was 1.535 FPKM. It also gave an FOSL2 expression ([2]; P+I 8 h, NC 1.294, NC_P+I 7.508) of 2.204 FPKM, a TNFSF9 expression ([2]; P+I 8 h, NC 1.393, NC_P+I 7.107) of 2.568 FPKM and an IQCJ-SCHIP1 expression ([2]; P+I 8 h, NC 1.402, NC_P+I 4.253) of 1.657 FPKM. It also gave an STAT5A expression ([2]; P+I 8 h, NC 1.417, NC_P+I 9.105) of 3.347 FPKM.
